In publication PMC6488579 (2019):
Each block holds one compound with its values, some of them ahead of it.

Assays:
[1] = test system: DEX04 (DNA, aptamer) ATATCATATGCTCCAATTACACGACGAGGGACGAGGAGTACTTGCCAACGATAACGTCGTTGGATCTGTCTGTGCCCATATTACACTTGCGATCT; assay: fluorescence bead-binding, eluted DNA; details: 150 nM aptamer
[2] = test system: HOC6-S-S-C6-DEX04 (DNA, aptamer) ACACGACGAGGGACGAGGAGTACTTGCCAACGATAACGTCGTTGGATCTGTCTGTGCCC; assay: electrochemical impedance, Rct change
[3] = test system: DEX04 (DNA, aptamer) ATATCATATGCTCCAATTACACGACGAGGGACGAGGAGTACTTGCCAACGATAACGTCGTTGGATCTGTCTGTGCCCATATTACACTTGCGATCT; assay: fluorescence bead-binding saturation, eluted DNA; details: immobilised compound (DXN Sepharose 6β beads); binding buffer; aptamer 50-400 nM
[4] = test system: DEX05 (DNA, aptamer) ATATCATATGCTCCAATTACAGGCTTGGATTAGTGTATCCAACTAGTATCGTGTATACTAGGCCCTTGCTACCCTGTGATATTACACTTGCGATCT; assay: fluorescence bead-binding saturation, eluted DNA; details: immobilised compound (DXN Sepharose 6β beads); aptamer up to 400 nM; NB [sic]
[5] = test system: DEX06 (DNA, aptamer) ATATCATATGCTCCAATTACACACGAAACACAAGCAGTGAGACTGCCTACGTCCGTAGTTGTGTTGAGTTTGCTCTCCATATTACACTTGCGATCT; assay: fluorescence bead-binding saturation, eluted DNA; details: immobilised compound (DXN Sepharose 6β beads); aptamer up to 400 nM; NB [sic]
[6] = test system: DEX03 (DNA, aptamer) ATATCATATGCTCCAATTACGCGTAGGGATGTGTAAGGTCTGTACACCTCGGTTTACTCTATGCTTCGCATATTGTCGATATTACACTTGCGATCT; assay: fluorescence bead-binding saturation, eluted DNA; details: immobilised compound (DXN Sepharose 6β beads); binding buffer; aptamer 50-400 nM
[7] = test system: DEX01 (DNA, aptamer) ATATCATATGCTCCAATTACACCCCACGTAGTGTCACAGCACGCTTATAGTAAGTGAAGTGACGGGTTGCTGATGTGATATTACACTTGCGATCT; assay: fluorescence bead-binding saturation, eluted DNA; details: immobilised compound (DXN Sepharose 6β beads); binding buffer; aptamer 50-400 nM
[8] = test system: DEX10 (DNA, aptamer) ATATCATATGCTCCAATTGGACAGCTGGCCGCGAAGCGAGACACGTATAAGGTACTATACGGCTGGCATATGTATCTGATATTACACTTGCGATCT; assay: fluorescence bead-binding saturation, eluted DNA; details: immobilised compound (DXN Sepharose 6β beads); binding buffer; aptamer 50-400 nM
[9] = highest tested 1 nM (below detection limit for DXN), measured in 10 mM PBS pH 7.4

binding ([1]; immobilised compound (NET beads, 5 µL, 6–14 µmol/mL)): no | binding [2, 9]: no
SMILES: C#C[C@]1(O)CC[C@H]2[C@@H]3CCC4=CC(=O)CC[C@@H]4[C@H]3CC[C@@]21C

binding ([1]; immobilised compound (P4 beads, 20 µL, 4.4 nmol/mL)): no | binding [2, 9]: no
SMILES: CC(=O)[C@H]1CC[C@H]2[C@@H]3CCC4=CC(=O)CC[C@]4(C)[C@H]3CC[C@]12C

KD [3]: 18.35 nM | binding [4]: no | binding ([2]; free DXN 50 and 100 nM, 10 mM PBS pH 7.4, 10 mM ferri/ferrocyanide): yes | binding [5]: no | KD [6]: 72.83 nM | KD [7]: 15.71 nM | KD [8]: 715 nM
SMILES: C[C@@H]1C[C@H]2[C@@H]3CCC4=CC(=O)C=C[C@]4(C)[C@@]3(F)[C@@H](O)C[C@]2(C)[C@@]1(O)C(=O)CO

binding ([1]; immobilised compound (E2 beads, 5 µL, 6–14 µmol/mL)): no | binding [2, 9]: no
SMILES: C[C@]12CC[C@@H]3c4ccc(O)cc4CC[C@H]3[C@@H]1CC[C@@H]2O
